This is an account of results in patent US9512114B2, “Substituted aminopyrimidine compounds and methods of use” (Calitor Sciences, LLC, priority 2013, dated 2016).

Series [1] is described as follows: Compound stability in human liver microsomes. It counts as in vitro ADME. The conditions noted are these: pH 7.4; for CLint scaled at 5 μM: liver microsomes, in vivo CLint extrapolated from human liver microsome incubation; for half-life at 5 μM: human liver microsomes 0.5 mg protein/mL, compound 5 μM, NADPH 1.0 mM, 37° C., read-out: Human T1/2. On the procedure: (§1) The LC/MS/MS system used in the analysis consists of an Agilent 1200 Series vacuum degasser, binary pump, well-plate autosampler, thermostatted column compartment, the Agilent G6430 Triple Quadrupole Mass Spectrometer with an electrosprayionization (ESI) source. Quantitative analysis was carried out using MRM mode. The parameters for MRM transitions are in the Table A.
(§2) An Agilent XDB-C18, 2.1×30 mm, […] column was used for the analysis. 5 μL of the samples were injected. Analysis condition: The mobile phase was 0.1% formic acid in water (A) and 0.1% formic acid in methanol (B). The flow rate was 0.4 mL/min. And the gradient of Mobile phase was in the Table B.
(§3) Alternatively, an Agilent 6330 series LC/MS/MS spectrometer equipped with G1312A binary pumps, a G1367A autosampler and a G1314C UV detector were used in the analysis. An ESI source was used on the LC/MS/MS spectrometer. The analysis was done in positive ion mode as appropriate and the MRM transition for each analyte was optimized using standard solution. A Capcell MP-C18 100×4.6 mm I.D., […] column (Phenomenex, Torrance, Calif., USA) was used during the analysis. The mobile phase was 5 mM ammonia acetate, 0.1% MeOH in water (A): 5 mM ammonia acetate, 0.1% MeOH in acetonitrile (B) (70:30, v/v). The flow rate was 0.6 mL/min. Column was maintained at ambient temperature. 20 μL of the samples were injected.
(§4) Human or rat liver microsomes incubations were conducted in duplicate in polypropylene tubes. The typical incubation mixtures consisted of human or rat liver microsomes (0.5 mg protein/mL), compounds of interest (5 μM) and NADPH (1.0 mM) in a total volume of 200 μL potassium phosphate buffer (PBS, 100 mM, pH 7.4). Compounds were dissolved in DMSO and diluted with PBS such that the final concentration of DMSO was 0.05%. The enzymatic reactions were commenced with the addition of protein after a 3-min preincubation and incubated in a water bath open to the air at 37° C. Reactions were terminated at various time points (0, 5, 10, 15, 30, 60 min) by adding equal volume of ice-cold acetonitrile. The samples were stored at −80° C. until LC/MS/MS assays.
(§5) The concentrations of compounds in the incubation mixtures of human or rat liver microsomes were determined by a LC/MS/MS method. The ranges of the linearity in the concentration range were determined for each tested compounds.
(§6) A parallel incubation was performed using denatured microsomes as the negative control, and reactions were terminated at various time points (0, 15, 60 min) after incubation at 37° C.
(§7) Dextromethorphan (70 μM) was selected as the positive control, and reactions were terminated at various time points (0, 5, 10, 15, 30, 60 min) after incubation at 37° C. Both positive and negative control samples were included in each assay to ensure the integrity of the microsomal incubation system.
(§8) The concentrations of compounds in human or rat liver microsome incubations were plotted as a percentage of the relevant zero time point control for each reaction. The in vivo CLint were extrapolated (ref.: Naritomi, Y.; Terashita, S.; Kimura, S.; Suzuki, A.; Kagayama, A.; and Sugiyama, Y.; Prediction of human hepatic clearance from in vivo animal experiments and in vitro metabolic studies with liver microsomes from animals and humans. Drug Metab. Dispos., 2001, 29: 1316-1324).

Series [2] is described as follows: Compound stability in rat liver microsomes. It counts as in vitro ADME. The conditions noted are these: pH 7.4; for CLint scaled at 5 μM: liver microsomes, in vivo CLint extrapolated from rat liver microsome incubation; for half-life at 5 μM: rat liver microsomes 0.5 mg protein/mL, compound 5 μM, NADPH 1.0 mM, 37° C., read-out: Rat T1/2. As for the experimental part: as §1, §2, §3, §4, §5, §6, §7, §8

Series [3] is described as follows: Pharmacokinetic profiles in rats. It counts as in vivo, rat. The conditions noted are these: for Cl/F / AUC(0-t) / half-life / Vd: iv dosing 1 mg/kg; for F: oral vs iv (iv 1 mg/kg; p.o. generally 5 or 10 mg/kg); for AUC(0-t) / half-life / Vd: rat, plasma; for Vd: read-out: Vss. On the procedure: The compounds disclosed herein are assessed in pharmacokinetic studies in mice, rats, dogs or monkeys. The compounds are administered as a water solution, 2% HPMC+1% TWEEN®80 in water solution, 5% DMSO+5% solutol in saline, 4% MC suspension or capsule. For the intravenous administration, the animals are generally given at 1 or 2 mg/kg dose. For the oral (p.o.) dosing, mice and rats are generally given 5 or 10 mg/kg dose, and dogs and monkeys are generally given 10 mg/kg dose. The blood samples (0.3 mL) are drawn at 0.25, 0.5, 1.0, 2.0, 3.0, 4.0, 6.0, 8.0, 12 and 24 h time points or 0.083, 0.25, 0.5, 1.0, 2.0, 4.0, 6.0, 8.0 and 24 h time points and centrifuged at 3,000 or 4000 rpm for 2 to 10 min. The plasma solutions are collected, stored at −20° C. or −70° C. until analyzed by LC/MS/MS as described above.

Another series has as its target PI3K (p110δ/p85α) (h) (Homo sapiens (Human), UniProt O00329). Put plainly: PI3K (p110δ/p85α) (h) non-radioactive HTRF kinase assay. The conditions noted are these: performed at Millipore UK Ltd. It counts as biochemical. On the procedure:
The above assay procedure can be used to determine the IC50 for inhibition and/or the inhibition constant, Ki.
PI3K (p110δ/p85α) (h) [Non-Radioactive Assay]
PI3K (p110δ/p85α) (h) is incubated in assay buffer containing 10 μM phosphatidylinositol-4, 5-bisphosphate and MgATP (concentration as required). The reaction is initiated by the addition of the MgATP mix. After incubation for 30 minutes at room temperature, the reaction is stopped by the addition of stop solution containing EDTA and biotinylated phosphatidylinositol-3,4,5-trisphosphate. Finally, detection buffer is added, which contains europium-labelled anti-GST monoclonal antibody, GST-tagged GRP1 PH domain and streptavidin-allophycocyanin. The plate is then read in timeresolved fluorescence mode and the homogenous time-resolved fluorescence (HTRF) signal is determined according to the formula HTRF=10000×(Em665 nm/Em620 nm).
The kinase assays described herein were performed at Millipore UK Ltd, Dundee Technology Park, Dundee DD2 1SW, UK.

Chain of PI3K (p110δ/p85α) (h) (O00329 whole entry): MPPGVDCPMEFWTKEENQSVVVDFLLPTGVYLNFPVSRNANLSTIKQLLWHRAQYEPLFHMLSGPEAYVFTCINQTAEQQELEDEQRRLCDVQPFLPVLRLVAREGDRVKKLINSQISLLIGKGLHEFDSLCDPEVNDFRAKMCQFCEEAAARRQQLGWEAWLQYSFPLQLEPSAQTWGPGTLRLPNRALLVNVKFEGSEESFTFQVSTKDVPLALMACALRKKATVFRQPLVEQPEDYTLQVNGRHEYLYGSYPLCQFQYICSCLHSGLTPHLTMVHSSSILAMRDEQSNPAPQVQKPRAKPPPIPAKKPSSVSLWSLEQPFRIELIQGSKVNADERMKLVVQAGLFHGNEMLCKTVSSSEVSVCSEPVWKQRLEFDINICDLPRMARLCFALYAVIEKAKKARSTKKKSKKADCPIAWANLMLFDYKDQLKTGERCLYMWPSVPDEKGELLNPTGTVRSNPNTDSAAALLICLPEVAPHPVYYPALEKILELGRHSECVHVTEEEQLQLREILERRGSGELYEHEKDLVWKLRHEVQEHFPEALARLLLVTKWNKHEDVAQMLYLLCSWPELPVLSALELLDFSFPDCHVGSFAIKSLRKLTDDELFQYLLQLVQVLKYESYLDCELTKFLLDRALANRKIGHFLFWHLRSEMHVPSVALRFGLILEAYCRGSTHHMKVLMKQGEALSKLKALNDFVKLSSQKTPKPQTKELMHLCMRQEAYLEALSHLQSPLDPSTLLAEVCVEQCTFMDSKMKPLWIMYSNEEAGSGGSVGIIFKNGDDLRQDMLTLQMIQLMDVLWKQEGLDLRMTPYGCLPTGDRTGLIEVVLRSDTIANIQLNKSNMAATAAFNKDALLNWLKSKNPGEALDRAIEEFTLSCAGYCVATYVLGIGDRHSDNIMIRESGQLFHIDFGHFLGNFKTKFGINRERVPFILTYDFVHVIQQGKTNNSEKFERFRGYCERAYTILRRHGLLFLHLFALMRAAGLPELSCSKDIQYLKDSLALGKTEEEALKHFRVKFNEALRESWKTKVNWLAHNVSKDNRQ
Chain of PI3K (p110δ/p85α) (h) (P27986 whole entry partner): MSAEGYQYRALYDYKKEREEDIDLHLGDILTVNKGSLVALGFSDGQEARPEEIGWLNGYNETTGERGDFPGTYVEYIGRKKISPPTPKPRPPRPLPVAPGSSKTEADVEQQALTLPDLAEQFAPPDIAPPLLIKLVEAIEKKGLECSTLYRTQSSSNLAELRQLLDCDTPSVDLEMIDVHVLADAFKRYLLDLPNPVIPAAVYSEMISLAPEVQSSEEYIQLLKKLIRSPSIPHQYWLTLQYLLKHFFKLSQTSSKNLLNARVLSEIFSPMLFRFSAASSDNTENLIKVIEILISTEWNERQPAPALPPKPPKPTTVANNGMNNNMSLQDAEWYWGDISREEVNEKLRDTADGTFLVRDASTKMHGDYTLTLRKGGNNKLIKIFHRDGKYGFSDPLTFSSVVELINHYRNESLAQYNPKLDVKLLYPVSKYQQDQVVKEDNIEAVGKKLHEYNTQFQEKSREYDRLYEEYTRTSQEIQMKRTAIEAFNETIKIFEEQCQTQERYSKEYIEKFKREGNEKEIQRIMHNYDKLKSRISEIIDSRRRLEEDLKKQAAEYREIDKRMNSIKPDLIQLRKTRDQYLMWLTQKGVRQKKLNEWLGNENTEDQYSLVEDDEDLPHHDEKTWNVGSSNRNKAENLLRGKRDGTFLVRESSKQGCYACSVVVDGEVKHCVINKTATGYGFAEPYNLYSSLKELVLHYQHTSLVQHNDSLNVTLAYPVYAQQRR

Consider `CC[C@H](Nc1ncnc(N)c1-c1nc(C)no1)c1cc2cccc(F)c2c(=O)n1C1CC1` [Ex. 1, (S)-3-(1-((6-amino-5-(3-methyl-1,2,4-oxadiazol-5-yl)pyrimidin-4-yl)amino)propyl)-2-cyclopropyl-8-fluoroisoquinolin-1(2H)-one], for which, in series [1], the CLint scaled at 5 μM is 243 mL/min/kg and the half-life at 5 μM worked out at 0.17 h. Also, in series [2], the CLint scaled at 5 μM is 219 mL/min/kg and the half-life at 5 μM worked out at 0.189 h. In series [3], this molecule gave a Cl/F of 93 mL/min/kg, an F of 46.34%, an AUC(0-t) of 178 ng·h/mL and a half-life of 0.63 h. Also, the Vd in series [3] came to 3.99 L/kg. At PI3K (p110δ/p85α) (h), the IC50 was determined as 5 nM.

Take `CC[C@H](Nc1ncnc(N)c1-c1nc(C)no1)c1cc2cccc(C)c2c(=O)n1-c1ccccc1` [Ex. 2, (S)-3-(1-((6-amino-5-(3-methyl-1,2,4-oxadiazol-5-yl)pyrimidin-4-yl)amino)propyl)-8-methyl-2-phenylisoquinolin-1(2H)-one]: in series [1], the CLint scaled at 5 μM is 840 mL/min/kg and the half-life at 5 μM came to 0.0345 h. Moreover, in series [2], the CLint scaled at 5 μM is 418 mL/min/kg and the half-life at 5 μM is 0.099 h. In series [3], this molecule showed a Cl/F of 79 mL/min/kg, an F of 46.57%, an AUC(0-t) of 215 ng·h/mL and a half-life of 1.16 h. The Vd in series [3] came out at 4.42 L/kg. Moreover, at PI3K (p110δ/p85α) (h), the IC50 was determined as 2 nM.

As to `CC[C@H](Nc1ncnc(N)c1-c1nc(C)no1)c1cc2cccc(Cl)c2c(=O)n1C1CC1` [Ex. 7, (S)-3-(1-((6-amino-5-(3-methyl-1,2,4-oxadiazol-5-yl)pyrimidin-4-yl)amino)propyl)-8-chloro-2-ccyclopropylisoquinolin-1(2H)-one], in series [1], the CLint scaled at 5 μM is 147 mL/min/kg and the half-life at 5 μM amounted to 0.197 h. In addition, in series [2], the CLint scaled at 5 μM is 250 mL/min/kg and the half-life at 5 μM amounted to 0.165 h. In series [3], this molecule had a Cl/F of 54.3 mL/min/kg, an F of 42.95%, an AUC(0-t) of 307 ng·h/mL and a half-life of 2.3 h. Moreover, the Vd in series [3] was found to be 7.96 L/kg. For the same molecule, at PI3K (p110δ/p85α) (h), the IC50 came to 4 nM.

As for `C[C@H](Nc1ncnc(N)c1-c1nnn(C)n1)c1cc2cccc(Cl)c2c(=O)n1C1CC1` [Ex. 12, (S)-3-(1-((6-amino-5-(2-methyl-2H-tetrazol-5-yl)pyrimidin-4-yl)amino)ethyl)-8-chloro-2-cyclopropylisoquinolin-1(2H)-one], in series [3], the Cl/F is 30 mL/min/kg, the F came out at 32.09%, the AUC(0-t) came out at 555 ng·h/mL and the half-life is 0.7 h. Also, the Vd in series [3] is 1.42 L/kg. The IC50 at PI3K (p110δ/p85α) (h) was 12 nM.

On to `CC[C@H](Nc1ncnc(N)c1-c1noc(C)n1)c1cc2cccc(-c3cnn(C)c3)c2c(=O)n1C1CC1` [Ex. 31, (S)-3-(1-((6-amino-5-(5-methyl-1,2,4-oxadiazol-3-yl)pyrimidin-4-yl)amino)propyl)-2-cyclopropyl-8-(1-methyl-1H-pyrazol-4-yl)isoquinolin-1(2H)-one], for which, in series [1], the CLint scaled at 5 μM was 18.9 mL/min/kg and the half-life at 5 μM is 1.54 h. In series [2], the CLint scaled at 5 μM is 26.1 mL/min/kg and the half-life at 5 μM amounted to 1.59 h. Also, in series [3], the Cl/F was 17.3 mL/min/kg, the F came out at 139.0%, the AUC(0-t) is 934 ng·h/mL and the half-life is 2.27 h. Moreover, in series [3], the Vd came out at 2.9 L/kg.

With `CC[C@H](Nc1ncnc(N)c1-c1nc(C)no1)c1cc2cccc(-c3cnn(C)c3)c2c(=O)n1C1CC1` [Ex. 32, (S)-3-(1-((6-amino-5-(3-methyl-1,2,4-oxadiazol-5-yl)pyrimidin-4-yl)amino)propyl)-2-cyclopropyl-8-(1-methyl-1H-pyrazol-4-yl)isoquinolin-1(2H)-one], in series [1], the CLint scaled at 5 μM was 23.4 mL/min/kg and the half-life at 5 μM was 1.24 h. In series [2], the CLint scaled at 5 μM was 21.2 mL/min/kg and the half-life at 5 μM is 1.95 h. In series [3], this molecule had a Cl/F of 24.3 mL/min/kg, an F of 74.2%, an AUC(0-t) of 688 ng·h/mL and a half-life of 1.49 h. Further, the Vd in series [3] came out at 2.42 L/kg.

Take `C[C@H](Nc1ncnc(N)c1-c1nnn(C)n1)c1cc2cccc(-c3cnn(C)c3)c2c(=O)n1C1CC1` [Ex. 33, (S)-3-(1-((6-amino-5-(2-methyl-2H-tetrazol-5-yl)pyrimidin-4-yl)amino)ethyl)-2-cyclopropyl-8-(1-methyl-1-pyrazol-4-yl)isoquinolin-1 (2H)-one]: in series [1], the CLint scaled at 5 μM was 28.4 mL/min/kg and the half-life at 5 μM was determined as 1.02 h. For the same molecule, in series [2], the CLint scaled at 5 μM is 26.7 mL/min/kg and the half-life at 5 μM worked out at 1.55 h. In series [3], this molecule showed a Cl/F of 12.7 mL/min/kg, an F of 163.6%, an AUC(0-t) of 1300 ng·h/mL and a half-life of 1.62 h. In addition, the Vd in series [3] stood at 1.9 L/kg.

For `Cc1nc(-c2c(N)ncnc2N[C@@H](C)c2cc3cccc(-c4cnn(C)c4)c3c(=O)n2C2CC2)no1` [Ex. 34, (S)-3-(1-((6-amino-5-(5-methyl-1,2,4-oxadiazol-3-yl)pyrimidin-4-yl)amino)ethyl)-2-cyclopropyl-8-(1-methyl-1H-pyrazol-4-yl)isoquinolin-1 (2H)-one], in series [1], the CLint scaled at 5 μM was 42.4 mL/min/kg and the half-life at 5 μM came to 0.684 h. In addition, in series [2], the CLint scaled at 5 μM was 29.9 mL/min/kg and the half-life at 5 μM worked out at 1.38 h. Also, in series [3], the Cl/F is 23.7 mL/min/kg, the F was 96.4%, the AUC(0-t) came out at 678 ng·h/mL and the half-life is 1.54 h. Further, the Vd in series [3] is 2.74 L/kg.
